We go through eight compounds from patent US20250136581A1, “SUBSTITUTED TRIAZOLE DERIVATIVE, PREPARATION METHOD THEREFOR, PHARMACEUTICAL COMPOSITION THEREOF, AND USE THEREOF” (SHANGHAI SIMR BIOTECHNOLOGY CO., LTD., priority 2021, published 2025).

In data set [1] the target is human α5β3γ2 receptors (α5-GABAA receptor) (Homo sapiens (Human), UniProt P18507+P31644). The experiment in a line: 3H-flunitrazepam competition binding, human α5β3γ2 GABAA receptor. The conditions noted are these: HEK293 cell membranes, 1 nM 3H-flunitrazepam; read-out: α5-GABAAR Ki. The method in brief:
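Radioligand displacement of 1 nM 3H-flunitrazepam from membranes of HEK293 lines stably expressing the human subtypes, 1 h at room temperature, compound in 8-point 4-fold series. Bound label on GF/C filters counted by scintillation; Ki derived from fitted IC50, with flumazenil as low control.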

For a further data set, the target named is human α2β3γ2 receptors (Homo sapiens (Human), UniProt P18507+P47869). Put plainly: 3H-flunitrazepam competition binding, human α2β3γ2 GABAA receptor. To be noted: HEK293 cell membranes, 1 nM 3H-flunitrazepam; read-out: Ki α2. The protocol: (§1) The affinity of the compound to each subtype of GABAA receptor was determined by competing for the binding of ^3H-flunitrazepam to HEK293 cells stably expressing human α1β3γ2, α2β3γ2, α3β3γ2, and α5β3γ2 receptors.
(§2) The cells were suspended in 50 mM Tris-HCl buffer (pH=7.4), homogenized 10 times on ice with a homogenizer for 20 seconds, and centrifuged at 1000 g for 10 minutes at 4° C. The supernatant was collected, and the above steps were repeated. The supernatant was centrifuged at 4° C. (33800 g; Thermo, rotor: A27-8×50) for 60 minutes, and the precipitate was resuspended in Tris buffer (50 mM Tris-HCl, 10 mM MgCl2, 0.5 mM EDTA, 10% glycerol). Protein was measured (BCA method, Pierce), and 1 mL aliquots were prepared and stored at −80° C.
(§3) The radioligand competition binding assay was performed in a 200 μL system (96-well plate) containing 100 μL of cell membrane. The concentration of ^3H-flunitrazepam was 1 nM and the concentration of the test compound was in the range of […]. Flumazenil was used as a control. 1 μL of 2 mM flumazenil (final concentration […]) was added to the low signal control well (Low control, LC), and 1 μL of DMSO was added to the high signal control well (High control, HC). The final concentration of target membrane protein was […]. All test compound sample storage solutions were 10 mM. The working concentration of the samples was to dilute all the samples to 0.2 mM with DMSO, followed by 4-fold serial gradient dilutions for a total of 8 concentration gradients. The 96-well plate was sealed with a sealing film, and then incubated on a shaker at room temperature for 1 hour. At the same time, the GF/C filter plate was soaked in soaking buffer (0.3% PEI, stored at 4° C.) for at least 0.5 hours. After the binding incubation was completed, the cells were collected onto a GF/C filter plate using a cell harvester. The plate was washed four times with washing buffer (50 mM Tris-HCl, pH 7.4, stored at 4° C.). After drying in a 50° C. oven for 1 hour, the bottom of the dried GF/C filter plate was sealed. The residual radioactivity on the filter membrane was detected using liquid scintillation counting. 50 μL of scintillation fluid was added to each well, and the plate was sealed. The readings were taken using a Microbeta2. The inhibitory activity of the test sample on the binding of ^3H-flunitrazepam to GABAA receptor membrane proteins was calculated, and the IC50 of each test sample was calculated by dose-effect curve fitting (GraphPad Prism 5 software), and the Ki of the sample was calculated from the IC50, thus evaluating the binding ability of the sample to the various subtypes of GABAA receptors.

Data set [2] addresses α5-GABAA receptor (α5, β3, γ2 subunits) (Homo sapiens (Human), UniProt P18507+P31644). The experiment in a line: Whole cell patch clamp, inverse agonist efficacy in HEK293 cells expressing α5-GABAA receptor. The conditions noted are these: HEK293, drug 100 nM, GABA 0.05 μM, −60 mV; read-out: Compound inverse agonist efficacy %. The class given is cell-based. The method in brief:
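Compounds screened at 100 nM against current induced by 0.05 μM GABA in monoclonal HEK293 cells stably expressing α5β3γ2 GABAA receptors. Recording by whole-cell voltage clamp (−60 mV, pH 7.4 bath, CsCl pipette); efficacy calculated from leak-corrected currents before and after drug.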
Background: The patch-clamp technique gives a direct electrical read-out from membranes.

Data set [3] in a line: Rat pharmacokinetic experiment. The data set is classed as in vivo. The conditions noted are these: for Kp: male, SD, brain / plasma, read-out: B/P (proportion of compounds entering the brain); for Kp / Cmax: rat, po; for Cmax: plasma. The protocol:
The maximum plasma concentration (Cmax) in the rat pharmacokinetic experiment was used to evaluate the absorption of the compounds in rat in vivo. The experimental compound was dissolved and then orally administered by gavage (p.o.) to male SD rats. The rats were fasted overnight before drug administration, and blood was collected via venipuncture at 0.25, 0.5, 1, 2, 4, and 7 hours post dose. Approximately 100 μL blood was collected for each sample; at the same time, the whole brain was taken and homogenized with 3 times the amount of PBS for analysis. The […] method was used to determine drug concentrations in plasma and brain tissue, and the proportion of compounds entering the brain (B/P) was calculated based on the AUC of the compound. Pharmacokinetic parameters were calculated using Phoenix WinNonlin 7.0. The administration vehicle was 5% CMC-Na aqueous solution.

The target in a further data set is human α3β3γ2 receptors (Homo sapiens (Human), UniProt P18507+P34903). The experiment in a line: 3H-flunitrazepam competition binding, human α3β3γ2 GABAA receptor. To be noted: HEK293 cell membranes, 1 nM 3H-flunitrazepam; read-out: Ki α3. The protocol: as §1, §2, §3
The next data set has as its target human α1β3γ2 receptors (Homo sapiens (Human), UniProt P14867+P18507). Put plainly: 3H-flunitrazepam competition binding, human α1β3γ2 GABAA receptor. To be noted: HEK293 cell membranes, 1 nM 3H-flunitrazepam; read-out: Ki α1. The protocol:
as §1, §2, §3

Another data set concerns α5-GABAA receptor. The conditions noted are these: GABA 1 μM, highest concentration of L-655,708; cited from earlier work.

Read-outs that look alike come from different tables or passages of the source.

Broadly, the Ki is a measure of affinity in units of concentration, obtained from inhibition or displacement. Usually Cmax stands for the highest concentration seen after dosing. Turning to `Cc1nnn(-c2ccc(C(F)F)cc2)c1COc1ccc(N2CC(C(=O)NC(C)C)C2)nn1` [Example 155, 1-(6-((1-(4-(Difluoromethyl)phenyl)-4-methyl-1H-1,2,3-triazol-5-yl)methoxy)pyridazin-3-yl)-N-isopropylazetidine-3-carboxamide], the Ki came out at 5.39 nM in data set [1], 231 nM on human α2β3γ2 receptors, 68.7 nM on human α3β3γ2 receptors and 389 nM on human α1β3γ2 receptors. Also, the inhibition at 0.1 µM in data set [2] stood at 42.3%. The Kp in data set [3] (3 mg/kg) was 0.0166. This compound also returned a Cmax in data set [3] (male SD rats, 3 mg/kg) of 3020 ng/mL.

With `Cc1nnn(-c2ccc(C(F)F)cc2)c1COc1ccc(N2CCNC(=O)C2)cn1` [Example 21, 4-(6-[(1-(4-(Difluoromethyl)phenyl)-4-methyl-1H-1,2,3-triazol-5-yl)methoxy]pyridin-3-yl)piperazin-2-one], the inhibition constant (Ki) in data set [1] was found to be 1.24 nM; at human α2β3γ2 receptors, 41.7 nM; on human α3β3γ2 receptors it was 21.8 nM; on human α1β3γ2 receptors, 36.7 nM. The inhibition at 0.1 µM in data set [2] was 49.3%. Further, the Kp in data set [3] (1 mg/kg) was determined as 0.045. This compound also showed a Cmax in data set [3] (male SD rats, 1 mg/kg) of 576 ng/mL.

Consider `Cc1nnn(-c2ccc(C(F)F)cc2)c1COc1ccc(N2CCN3CCNC(=O)[C@@H]3C2)cn1` [Example 56, (S)-8-(6-((1-(4-(Difluoromethyl)phenyl)-4-methyl-1H-1,2,3-triazol-5-yl)methoxy)pyridin-3-yl)octahydro-1H-pyrazino[1,2-a]pyrazin-1-one], for which the Ki in data set [1] was 7.99 nM; at human α2β3γ2 receptors, 330 nM. Also, the inhibition at 0.1 µM in data set [2] came out at 53.4%. Further, in data set [3] (3 mg/kg), the Kp was determined as 0.0261. In data set [3] (male SD rats, 3 mg/kg), the highest level (Cmax) was 2050 ng/mL.

With `Cc1nnn(-c2ccc(C(F)F)cc2)c1COc1ccc(N2CCN(C)C(=O)C2)nn1` [Example 26, 4-(6-((1-(4-(Difluoromethyl)phenyl)-4-methyl-1H-1,2,3-triazol-5-yl)methoxy)pyridazin-3-yl)-1-methylpiperazin-2-one], the Ki in data set [1] turned out to be 1.32 nM; at human α2β3γ2 receptors, 45.4 nM; at human α3β3γ2 receptors, 23.4 nM; at human α1β3γ2 receptors, 47.8 nM. Further, the inhibition at 0.1 µM in data set [2] came to 50.3%. For the same compound, the Kp in data set [3] (1 mg/kg) amounted to 0.0336. The maximum concentration (Cmax) in data set [3] (male SD rats, 1 mg/kg) was found to be 637 ng/mL.

`Cc1nnn(-c2ccc(C(F)F)cc2)c1COc1ccc(N2CC(=O)N3CCC[C@H]3C2)nn1` [Example 14, (S)-2-(6-((1-(4-(difluoromethyl)phenyl)-4-methyl-1H-1,2,3-triazol-5-yl)methoxy)pyridazin-3-yl)hexahydropyrrolo[1,2-a]pyrazin-4(1H)-one]: the Ki in data set [1] amounted to 1.24 nM. Besides, in data set [2], the inhibition at 0.1 µM was 45.7%. Also, the Kp in data set [3] (3 mg/kg) came out at 0.0135. For the same compound, the concentration in data set [3] (male SD rats, 3 mg/kg) peaked (Cmax) at 2700 ng/mL.

On to `O=C1NCCN2CCN(c3ccc(OCc4c(Cl)nnn4-c4ccc(C(F)F)cc4)nn3)C[C@@H]12` [Example 181, (S)-8-(6-((4-Chloro-1-(4-(difluoromethyl)phenyl)-1H-1,2,3-triazol-5-yl)methoxy)pyridazin-3-yl)hexahydro-2H-pyrazino[1,2-a]pyrazin-1(6H)-one], for which the inhibition constant (Ki) in data set [1] is 1.21 nM; on human α2β3γ2 receptors, 64.2 nM; at human α3β3γ2 receptors, 44.6 nM; at human α1β3γ2 receptors it was 140 nM. Further, the inhibition at 0.1 µM in data set [2] was 51.2%. In addition, in data set [3] (3 mg/kg), the Kp came out at 0.0099. This compound also gave a Cmax in data set [3] (male SD rats, 3 mg/kg) of 2670 ng/mL.

As for `Cc1nnn(-c2ccc(C(F)F)cc2)c1COc1cnc(N2CCNC(=O)C2)cn1` [Example 169, 4-(5-((1-(4-(Difluoromethyl)phenyl)-4-methyl-1H-1,2,3-triazol-5-yl)methoxy)pyrazin-2-yl)piperazin-2-one], the Ki was determined as 1.11 nM in data set [1], 27.2 nM at human α2β3γ2 receptors, 26.3 nM at human α3β3γ2 receptors and 73.5 nM at human α1β3γ2 receptors. Also, the inhibition at 0.1 µM in data set [2] stood at 40.5%. Further, the “B/P (proportion of compounds entering the brain)” value in data set [3] (male SD rats, p.o., 3 mg/kg, based on AUC) came to 3.81%. In addition, the Cmax in data set [3] (male SD rats, 3 mg/kg) amounted to 3180 ng/mL.

Turning to `CCOC(=O)c1ncn2c1[C@@H]1CCCN1C(=O)c1cc(OC)ccc1-2` [L-655,708], in the data set with α5-GABAA receptor, the “suppression of the current induced by GABA” value is reported as 15%.
